Measured values reported in patent US8389557B2, “Triazole derivatives useful as Axl inhibitors” (Rigel Pharmaceuticals, Inc., priority 2005, dated 2013).
pIC50: −log10 of the molar value. Structures can show the parent of a compound that is named as a salt.

Experiments:
Axl = target: T1, Axl (Homo sapiens, UniProt P30530); test: Phospho-Akt in-cell Western assay (inhibition of Axl activity); format: cell-based
T1 construct: endogenous in cells; host or cells: HeLa cells
T1 sequence (P30530 26-894): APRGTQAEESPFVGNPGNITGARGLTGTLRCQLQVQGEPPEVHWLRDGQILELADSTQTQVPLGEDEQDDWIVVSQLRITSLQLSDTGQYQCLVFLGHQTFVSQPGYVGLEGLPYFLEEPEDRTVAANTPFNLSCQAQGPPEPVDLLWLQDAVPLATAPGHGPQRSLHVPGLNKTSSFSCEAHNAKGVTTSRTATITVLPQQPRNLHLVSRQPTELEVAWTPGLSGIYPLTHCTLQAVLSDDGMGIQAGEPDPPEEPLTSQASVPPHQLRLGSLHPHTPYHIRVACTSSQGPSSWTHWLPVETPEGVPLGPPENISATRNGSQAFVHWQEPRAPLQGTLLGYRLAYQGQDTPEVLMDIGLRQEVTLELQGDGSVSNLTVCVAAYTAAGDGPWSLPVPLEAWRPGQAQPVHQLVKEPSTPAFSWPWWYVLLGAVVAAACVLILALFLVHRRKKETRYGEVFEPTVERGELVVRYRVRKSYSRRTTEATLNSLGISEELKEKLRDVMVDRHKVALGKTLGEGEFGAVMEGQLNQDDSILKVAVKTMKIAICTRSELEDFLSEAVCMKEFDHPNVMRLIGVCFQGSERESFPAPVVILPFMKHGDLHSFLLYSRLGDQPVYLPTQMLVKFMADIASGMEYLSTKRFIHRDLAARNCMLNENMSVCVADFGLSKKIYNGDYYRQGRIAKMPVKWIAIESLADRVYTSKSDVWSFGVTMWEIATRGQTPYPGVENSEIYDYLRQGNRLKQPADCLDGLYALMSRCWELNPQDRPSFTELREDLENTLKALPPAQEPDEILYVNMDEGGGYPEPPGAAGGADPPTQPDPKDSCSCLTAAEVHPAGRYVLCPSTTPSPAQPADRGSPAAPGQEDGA
How it was run: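 HeLa cells on poly-L-lysine, starved 24 h in 0.5% FCS DMEM with Axl/Fc 500 ng/mL, pre-treated with compound 1 h at 37° C. Axl stimulated 5 min by anti-Axl/anti-mouse antibody cross-linking. Fixed cells probed with anti-phospho-Akt and HRP secondary, chemiluminescence read.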

[1] = inhibition of Axl activity, Table 1
[2] = Table 5, Hela cells, Axl antibody cross-linking stimulation, phospho-Akt chemiluminescence

| Compound | melting point [°C] | pIC50 (Axl; [1]) | further results |
| --- | --- | --- | --- |
| Cc1cccc(C(=O)n2nc(Nc3cccc(OCCN4CCOCC4)c3)nc2N)c1 [(Ia-27)] | 60 to 63 | 5.00 to 6.00 |  |
| Cc1cccc(C(=O)n2nc(Nc3cccc(OCC#N)c3)nc2N)c1 [(Ia-9), 5-amino-3-[3-(cyanomethoxy)phenylamino]-1-(3-(methyl)phenyl)carbonyl-1H-1,2,4-triazole] | 220 to 224.4 | < 4.70 |  |
| C=CCN(C)Cc1cc2cc(Nc3nc(N)n(C(=O)c4cccc(C)c4)n3)ccc2o1 [(Ia-28), 5-amino-3-(2-((allyl(methyl)amino)methyl)benzofuran-5-yl)amino-1-(3-methylphenyl)carbonyl-1H-1,2,4-triazole] | 128 to 131 |  | pIC50 (Axl; [2]): 5.00 to 6.00 |
| Cc1cccc(C(=O)n2nc(Nc3cccc(OCC(=O)N4CCN(C(=O)OC(C)(C)C)CC4)c3)nc2N)c1 [(Ia-19)] | 206 to 208 | < 4.70 |  |
| CC(C)Oc1cccc(C(=O)n2nc(Nc3cccc(OCc4ccccc4)c3)nc2N)c1 [(Ia-17), 5-amino-3-[3-(benzyloxy)phenylamino]-1-(3-(iso-propoxy)phenyl)carbonyl-1H-1,2,4-triazole] | 131.1 to 132.4 | < 4.70 |  |
| Nc1nc(Nc2ccccc2)n(C(=O)/C=C/c2ccco2)n1 [compound 140, 3-amino-5-phenylamino-1-(trans-2-(furan-2-yl)ethenyl)carbonyl-1H-1,2,4-triazole] | 190 to 193 |  | pIC50 (Axl; Table 4, Hela cells, Axl antibody cross-linking stimulation, phospho-Akt chemiluminescence): < 4.70 |
| CC(C)Oc1ccc(C(=O)n2nc(Nc3ccc(OCc4ccccc4)cc3)nc2N)cc1 [(Ia-10), 5-amino-3-[4-(benzyloxy)phenylamino]-1-(4-(iso-propoxy)phenyl)carbonyl-1H-1,2,4-triazole] | 79 to 81 | < 4.70 |  |
| Cc1ccccc1C(=O)n1nc(Nc2cccc(OCC#N)c2)nc1N [(Ia-8), 5-amino-3-[3-(cyanomethoxy)phenylamino]-1-(2-(methyl)phenyl)carbonyl-1H-1,2,4-triazole] | 204.5 to 207.9 | < 4.70 |  |
| CC(C)Oc1cccc(C(=O)n2nc(Nc3cccc(O)c3)nc2N)c1 [(Ia-16), 5-amino-3-[3-(hydroxy)phenylamino]-1-(3-(iso-propoxy)phenyl)carbonyl-1H-1,2,4-triazole] | 211.3 to 214.8 | 5.00 to 6.00 |  |
| Cc1cccc(C(=O)n2nc(Nc3cccc(OCC(=O)NCCN4CCOCC4)c3)nc2N)c1 [(Ia-18), 5-amino-1-(3-methylphenyl)carbonyl-3-[3-[2-(4-morpholinyl)ethylaminocarbonylmethoxy]phenyl]amino-1H-1,2,4-triazole] | 145 to 147 | 5.00 to 6.00 |  |
| Cc1ccc(C(=O)n2nc(Nc3cccc(OCC#N)c3)nc2N)cc1 [(Ia-5), 5-amino-3-[3-(cyanomethoxy)phenylamino]-1-(4-(methyl)phenyl)carbonyl-1H-1,2,4-triazole] | 236 to 241 |  |  |
| CC(C)Oc1ccc(C(=O)n2nc(Nc3cccc(O)c3)nc2N)cc1 [(Ia-13), 5-amino-3-[3-(hydroxy)phenylamino]-1-(4-(iso-propoxy)phenyl)carbonyl-1H-1,2,4-triazole] | 204.2 to 211.9 | 5.00 to 6.00 |  |
| Nc1nc(Nc2ccccc2)nn1C(=O)/C=C/c1ccco1 [compound 141, 5-amino-3-phenylamino-1-(trans-2-(furan-2-yl)ethenyl)carbonyl-1H-1,2,4-triazole] | 212 to 216 |  | pIC50 (Axl; Table 3, Hela cells, Axl antibody cross-linking stimulation, phospho-Akt chemiluminescence): 5.00 to 6.00 |
| CC(C)Oc1ccc(C(=O)n2nc(Nc3cccc(OCCN4CCOCC4)c3)nc2N)cc1 [(Ia-22)] | 152 to 153.7 | 5.00 to 6.00 |  |
| CC(C)Oc1ccc(C(=O)n2nc(Nc3ccc(OCC#N)cc3)nc2N)cc1 [(Ia-12), 5-amino-3-[4-(cyanomethoxy)phenylamino]-1-(4-(iso-propoxy)phenyl)carbonyl-1H-1,2,4-triazole] | 182.9 to 186.1 | 5.00 to 6.00 |  |
| CNCc1cc2cc(Nc3nc(N)n(C(=O)c4cccc(C)c4)n3)ccc2o1 [(Ia-29), 5-amino-3-(2-((methylamino)methyl)benzofuran-5-yl)amino-1-(3-methylphenyl)carbonyl-1H-1,2,4-triazole] | 128 to 131 |  | pIC50 (Axl; [2]): > 6.00 |
| Nc1nc(Nc2cccc(OCCN3CCOCC3)c2)nn1C(=O)c1ccccc1 (as salt: salt) [(Ia-26), 5-amino-3-[3-[2-(morpholin-4-yl)ethoxy]phenylamino]-1-phenylcarbonyl-1H-1,2,4-triazole, hydrogen chloride salt] | 236.6 to 242.1 |  |  |
| CC(C)Oc1ccc(C(=O)n2nc(Nc3cccc(OCCC4OCCO4)c3)nc2N)cc1 [(Ia-24), 5-amino-3-[3-[2-(1,3-dioxolan-2-yl)ethoxy]phenylamino]-1-(4-(iso-propoxy)phenyl)carbonyl-1H-1,2,4-triazole] | 144.4 to 145.4 | 5.00 to 6.00 |  |
| Cc1cccc(C(=O)n2nc(Nc3cccc(OCC(=O)N4CCNCC4)c3)nc2N)c1 [(Ia-20), 5-amino-1-(3-methylphenyl)carbonyl-3-[3-(piperazin-4-ylcarbonylmethoxy)phenyl]amino-1H-1,2,4-triazole] | 169 to 171 | 5.00 to 6.00 |  |
| CC(C)Oc1ccc(C(=O)n2nc(Nc3ccc(O)cc3)nc2N)cc1 [(Ia-11), 5-amino-3-[4-(hydroxy)phenylamino]-1-(4-(iso-propoxy)phenyl)carbonyl-1H-1,2,4-triazole] | 229 to 234 | 5.00 to 6.00 |  |
| CC(C)Oc1ccc(C(=O)n2nc(Nc3cccc(OCc4ccccc4)c3)nc2N)cc1 [(Ia-25), 5-amino-3-[3-(benzyloxy)phenylamino]-1-(4-(iso-propoxy)phenyl)carbonyl-1H-1,2,4-triazole] | 188.7 to 189.9 | < 4.70 |  |
| CC(C)Oc1ccc(C(=O)n2nc(N)nc2NC2C3C=CC(C3)C2C(N)=O)cc1 (stereo not drawn) [compound 353, 3-amino-1-(4-(iso-propoxy)phenyl)carbonyl-5-[(3-(aminocarbonyl)bicyclo[2.2.1]hept-5-en-2-yl)amino]-1H-1,2,4-triazole] |  |  | pIC50 (Axl; Table 6, Hela cells, Axl antibody cross-linking stimulation, phospho-Akt chemiluminescence): < 4.70 |
| Nc1nc(Nc2ccc(OCCN3CCCC3)cc2)nn1C(=O)c1ccc(-c2ccsc2)cc1 [compound 314, 5-amino-1-(4-(thien-3-yl)phenyl)carbonyl-3-[4-[2-(pyrrolidin-1-yl)ethoxy]phenylamino]-1H-1,2,4-triazole] |  |  | pIC50 (Axl; inhibition of Axl activity, phospho-Akt in-cell Western assay, Table 1): > 6.00 |
